Common to all, as to format: biochemical
In one assay the target is T1, GBA2 (Homo sapiens, UniProt Q9HCG7).
T1 construct: expressed in transfected cells; host or cells: HEK293T (GBA/GBA2 KO background for the fluorogenic assay; endogenous-GBA background with GBA2 and GBA3 overexpressed for ABPP and intact-cell assays)
T1 sequence (Q9HCG7 1-927): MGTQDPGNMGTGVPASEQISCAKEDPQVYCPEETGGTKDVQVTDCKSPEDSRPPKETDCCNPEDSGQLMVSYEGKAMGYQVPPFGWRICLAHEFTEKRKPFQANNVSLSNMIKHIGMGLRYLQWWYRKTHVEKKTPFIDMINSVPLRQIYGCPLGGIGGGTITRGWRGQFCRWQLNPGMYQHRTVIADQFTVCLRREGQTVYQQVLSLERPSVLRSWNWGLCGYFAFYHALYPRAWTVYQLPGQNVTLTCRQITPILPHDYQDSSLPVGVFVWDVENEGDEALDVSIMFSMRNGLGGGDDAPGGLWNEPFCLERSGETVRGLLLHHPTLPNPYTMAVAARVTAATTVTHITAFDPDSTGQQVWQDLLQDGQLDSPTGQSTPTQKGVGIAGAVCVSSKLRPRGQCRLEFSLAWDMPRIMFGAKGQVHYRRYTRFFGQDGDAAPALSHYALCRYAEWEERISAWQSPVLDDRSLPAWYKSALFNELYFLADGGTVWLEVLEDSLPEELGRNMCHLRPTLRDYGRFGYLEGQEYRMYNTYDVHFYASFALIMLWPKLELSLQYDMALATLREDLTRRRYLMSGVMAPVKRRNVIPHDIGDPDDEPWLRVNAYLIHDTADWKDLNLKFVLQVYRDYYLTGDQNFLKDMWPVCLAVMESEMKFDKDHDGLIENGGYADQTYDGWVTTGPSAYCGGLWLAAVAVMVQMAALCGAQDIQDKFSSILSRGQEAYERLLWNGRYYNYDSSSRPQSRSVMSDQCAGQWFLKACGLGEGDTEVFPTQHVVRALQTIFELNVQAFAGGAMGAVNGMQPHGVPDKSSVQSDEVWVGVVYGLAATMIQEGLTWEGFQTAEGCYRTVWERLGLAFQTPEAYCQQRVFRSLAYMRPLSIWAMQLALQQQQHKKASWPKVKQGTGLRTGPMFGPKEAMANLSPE
Briefly: Fluorogenic substrate enzymatic assay, lysate of GBA/GBA2 KO HEK293T cells overexpressing GBA2. The conditions noted are these: for GBA2/GBA ratio, 3 h / (Ratio) GBA2/GBA: IC50 ratio; for IC50: n=3; for (Ratio) GBA2/GBA / inhibitory activity against GBA2: in vitro, 30 min. As to the method: (§1) Enzyme activity assays: All assays were performed with lysates of HEK293T cells or zebrafish larvae in 96‐well plates at 37 °C. Samples were diluted with McIlvaine buffer (150 mM citric acid‐Na2HPO4) to a final volume of 25 μL, at pH appropriate for each enzyme. Assays were performed by incubating the samples with 100 μL 4‐methylumbelliferyl‐β‐D‐glucoside substrates diluted in McIlvaine buffer (with 0.1 % (w/v) bovine serum albumin (BSA)) for a period of 30 min or 3 h. The substrate mixtures used for each enzyme were as follows: GBA, 3.75 mM 4‐MU‐β‐D‐glucopyranoside (Glycosynth, Warrington Cheshire, UK) at pH 5.2, supplemented with 0.2 % (w/v) sodium taurocholate, 0.1 % (v/v) Triton X‐100, 0.1 % (w/v) bovine serum albumin (BSA); GBA2, 3.75 mM 4 MU‐β‐D‐glucopyranoside at pH 5.8; GBA3, 3.75 mM 4‐MU‐β‐D‐glucopyranoside at pH 6.0. After stopping the enzyme reaction with 200 μL 1 M NaOH‐glycine (pH 10.3), 4‐methylumbelliferone fluorescence was measured with a fluorimeter LS55 (Perkin Elmer, Waltham, MA, USA) with λEX 366 nm and λEM 445 nm. Enzyme activities were determined by subtraction of background (measured for incubations without enzyme). IC50 values were determined exactly as earlier described.[36]
The IC50 values were determined using a fluorogenic enzymatic assay. For GBA, 3.16 ng (53 fmol) of rhGBA, (recombinant human GBA, Imiglucerase) obtained from Sanofi Genzyme (Cambridge, MA, USA), was prepared in 12.5 μL McIlvaine buffer (150 mM, pH 5.2) supplemented with 0.1 % (v/v) Triton X‐100, and 0.2 % (w/v) sodium taurocholate, 0.1 % (w/v) bovine serum albumin (BSA). […] In the case of GBA2 or GBA3, lysates of GBA/GBA2 KO HEK293T cells overexpressing GBA2 or GBA3, respectively where used. The enzymatic activity of GBA, GBA2 and GBA3 were measured with 4MU‐β‐D‐glucoside substrate as described above.

The target in assay [1] is T2, rhGBA (recombinant human GBA, Imiglucerase) (Homo sapiens, UniProt P04062, R534H).
T2 construct: purchased Sanofi Genzyme (Cambridge, MA, USA)
T2 sequence (P04062 40-536 R534H): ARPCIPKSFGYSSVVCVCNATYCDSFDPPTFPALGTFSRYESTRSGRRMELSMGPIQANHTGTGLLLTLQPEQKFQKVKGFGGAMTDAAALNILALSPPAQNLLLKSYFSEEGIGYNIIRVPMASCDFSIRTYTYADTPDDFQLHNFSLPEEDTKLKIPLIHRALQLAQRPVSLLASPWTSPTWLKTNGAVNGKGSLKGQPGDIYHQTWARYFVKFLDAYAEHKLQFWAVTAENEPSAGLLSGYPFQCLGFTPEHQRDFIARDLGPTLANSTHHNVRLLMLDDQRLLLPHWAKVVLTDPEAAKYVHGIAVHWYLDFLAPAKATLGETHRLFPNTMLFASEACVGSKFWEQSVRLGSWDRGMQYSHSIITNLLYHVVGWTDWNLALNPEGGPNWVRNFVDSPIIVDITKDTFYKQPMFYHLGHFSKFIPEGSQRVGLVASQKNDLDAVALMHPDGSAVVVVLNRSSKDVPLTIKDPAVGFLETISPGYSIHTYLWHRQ
The experiment in a line: Fluorogenic substrate (4-MU-β-D-glucoside) enzymatic assay, rhGBA. The conditions noted are these: for inhibitory activity against GBA: in vitro, 30 min. On the procedure:
(§2) Using fluorogenic substrate‐based assays, we determined apparent IC50 values at 30 min incubation time of the xylo‐cyclophellitols in rhGBA, and GBA2 and GBA3 lysates of cells expressing only each of the enzymes specifically.
as §1
(§3) The IC50 values were determined using a fluorogenic enzymatic assay. For GBA, 3.16 ng (53 fmol) of rhGBA, (recombinant human GBA, Imiglucerase) obtained from Sanofi Genzyme (Cambridge, MA, USA), was prepared in 12.5 μL McIlvaine buffer (150 mM, pH 5.2) supplemented with 0.1 % (v/v) Triton X‐100, and 0.2 % (w/v) sodium taurocholate, 0.1 % (w/v) bovine serum albumin (BSA). The enzyme was incubated with 12.5 μL of inhibitors diluted in McIlvaine buffer (150 mM, pH 5.2) at 37 °C for 30 min. In the case of GBA2 or GBA3, lysates of GBA/GBA2 KO HEK293T cells overexpressing GBA2 or GBA3, respectively where used. The enzymatic activity of GBA, GBA2 and GBA3 were measured with 4MU‐β‐D‐glucoside substrate as described above.

The target in assay [2] is T2, rhGBA (recombinant human GBA, Imiglucerase). The assay is described as above.
The target of a further assay is T3, GBA3 (Homo sapiens, UniProt Q9H227).
T3 construct: expressed in transfected cells; host or cells: HEK293T (GBA/GBA2 KO background for the fluorogenic assay; endogenous-GBA background with GBA2 and GBA3 overexpressed for ABPP and intact-cell assays)
T3 sequence (Q9H227 1-469): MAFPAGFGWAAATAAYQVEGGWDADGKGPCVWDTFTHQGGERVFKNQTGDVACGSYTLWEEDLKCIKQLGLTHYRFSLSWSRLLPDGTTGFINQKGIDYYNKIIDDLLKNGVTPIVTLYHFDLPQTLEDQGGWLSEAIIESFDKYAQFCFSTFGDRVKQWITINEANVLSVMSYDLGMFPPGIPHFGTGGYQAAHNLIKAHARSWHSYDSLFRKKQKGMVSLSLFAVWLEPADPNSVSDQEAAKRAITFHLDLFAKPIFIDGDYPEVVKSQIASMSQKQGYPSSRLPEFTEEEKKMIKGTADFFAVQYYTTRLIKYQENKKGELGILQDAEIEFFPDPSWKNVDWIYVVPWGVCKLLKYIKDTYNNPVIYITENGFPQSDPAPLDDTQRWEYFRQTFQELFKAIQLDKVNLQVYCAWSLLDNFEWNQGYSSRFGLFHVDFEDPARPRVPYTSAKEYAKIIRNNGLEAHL
The experiment in a line: Fluorogenic substrate enzymatic assay, lysate of GBA/GBA2 KO HEK293T cells overexpressing GBA3. To be noted: for (Ratio) GBA3/GBA: IC50 ratio; for (Ratio) GBA3/GBA / inhibitory activity against GBA3: in vitro, 30 min; for IC50: incubation time 30 min, enzymatic assay, ±SD, n=3, read-out: In vitro apparent IC50 GBA3. On the procedure: as §2, §1, §3

Where [3] appears, read: enzymatic assay performed for 3 h, read-out: In vitro apparent IC50 GBA2, 3 h.
Setting [4] is: incubation time 30 min, enzymatic assay, ±SD, read-out: In vitro apparent IC50 GBA2.
[5] abbreviates: incubation time 30 min, enzymatic assay, ±SD, n=3, read-out: In vitro apparent IC50 rhGBA.

These results are taken from PMC8596838, “Xylose‐Configured Cyclophellitols as Selective Inhibitors for Glucocerebrosidase” (Chembiochem, 2021).

Where two headings read alike, the source gives them in different places.

For orientation: IC50 means the concentration that gives 50% inhibition.

As for `O[C@H]1[C@H](O)[C@@H](O)[C@@H]2N[C@@H]2[C@@H]1O` [compound 14, conduritol B‐aziridine, reference compound], the “GBA2/GBA ratio, 3 h” value at GBA2 (in vitro 3 h) is given as 6.6. Moreover, the values for the IC50 (at GBA2 (setting [3]); in assay [1]) were 10800 ± 3300 nM and 1630 ± 70 nM, respectively. In addition, the “increase in inhibitory activity towards GBA2 of aziridines relative to epoxide analogues” value on GBA2 (in vitro 3 h) is listed as 10–20 fold. The “increase in inhibitory activity towards GBA of aziridines relative to epoxide analogues” value in assay [2] (in vitro 3 h) is given as “less than two‐fold increase”.
Regarding `O[C@H]1[C@H](O)[C@@H](O)[C@@H]2O[C@@H]2[C@@H]1O` [compound 13, Conduritol B‐epoxide, reference compound], the “(Ratio) GBA3/GBA” value at GBA3 is listed as greater than 14. For the same compound, the half-inhibitory concentration (IC50) at GBA3 is greater than 500000 nM; on GBA2 (setting [3]), 105000 ± 5850 nM; on GBA2 (setting [4]) it was greater than 500000 nM; in assay [1] (setting [5]), 34900 ± 1670 nM; in assay [2] (enzymatic assay performed for 3 h, n=3, read-out: In vitro apparent IC50 rhGBA, 3 h), 2630 ± 340 nM. Besides, the “GBA2/GBA ratio, 3 h” value at GBA2 (in vitro 3 h) worked out at 40. Moreover, the “(Ratio) GBA2/GBA” value at GBA2 is listed as greater than 14.
As for `O[C@@H]1[C@@H](O)[C@H](O)C[C@@H]2N[C@H]12` [compound 12], the “inhibitory activity against GBA3” value on GBA3 is reported as “no or little inhibitory activity”. Also, the “inhibitory activity against GBA2” value against GBA2 is reported as “no or little inhibitory activity”. Also, at GBA2 (setting [4]), the IC50 is 55800 ± 2340 nM. In assay [1], the “inhibitory activity against GBA” value is “no or little inhibitory activity”.
For `O[C@@H]1[C@@H](O)[C@H](O)C[C@@H]2O[C@H]12` [compound 11, α‐D‐xylose‐configured cyclophellitol], the “inhibitory activity against GBA3” value against GBA3 is recorded as “no or little inhibitory activity”. The “inhibitory activity against GBA2” value against GBA2 is “no or little inhibitory activity”. Besides, in assay [1], the “inhibitory activity against GBA” value is on record as “no or little inhibitory activity”.
For the compound `O=C(CCCCC1SCC2NC(=O)NC21)NCc1cn(CCCCCCCCN2C3CC(O)C(O)C(O)C32)nn1` (centres unmarked) [ABP 7], at GBA3, the “(Ratio) GBA3/GBA” value is 155. Also, the 50% inhibitory concentration (IC50) was found to be 25300 ± 5010 nM on GBA3, 48300 ± 9010 nM on GBA2 (setting [4]) and 164 ± 22.1 nM in assay [1] (setting [5]). Further, the “(Ratio) GBA2/GBA” value on GBA2 is recorded as 295.
The corresponding values for `CC1=CC(C)=[N+]2C1=C(CCCCc1cn(CCCCCCCCN3[C@H]4[C@H](O)[C@@H](O)[C@H](O)C[C@H]43)nn1)c1c(C)cc(C)n1[B-]2(F)F` (some centres unmarked) [ABP 8] are 193, 522 ± 209 nM, 61.2 ± 12 nM, 2.7 ± 0.45 nM and 23.
As to `CN1/C(=C/C=C/C=C/C2=[N+](CCCCCC(=O)NCc3cn(CCCCCCCCN4[C@@H]5[C@H](CO)[C@@H](O)[C@H](O)[C@@H](O)[C@@H]54)nn3)c3ccccc3C2(C)C)C(C)(C)c2ccccc21` (some centres unmarked) [ABP 10, reference compound], the “(Ratio) GBA3/GBA” value at GBA3 was determined as 1. Besides, the IC50 is 8.54 ± 1.18 nM at GBA3, 21.5 ± 0.42 nM on GBA2 (setting [4]) and 8.1 ± 1.94 nM in assay [1] (setting [5]). Further, the “(Ratio) GBA2/GBA” value on GBA2 worked out at 2.6.
